Reference: US9987278B2, “Pharmaceutical composition for treating FLT3 mutation-positive cancer, mutant FLT3 inhibitor and uses thereof” (FUJIFILM Corporation, priority 2014, dated 2018)

Tests used:
Type in all cases: cell-based
32D FLT3 D835Ins cells = assay: Cell growth assay, 32D FLT3 D835Ins; conditions: Mus musculus, 48 h, FLT3 D835Ins (I836 to leucine and aspartic acid), 2 days with compound, read-out: GI50 value for growth of FLT3 protein-expressing 32D cells
Protocol: (§1) After the virus-containing culture supernatant was added to the mouse hematopoietic precursor cell line 32D cells in the presence of 10 μg/mL polybrene, and the cells were cultured in the presence of 0.5 ng/mL mouse IL-3.
(§2) Individual cells were seeded onto a 96-well plate (Becton, Dickinson and Company) at a density of 1000 to 10000 cells/well, and the cell culture was started at 37° C. in the presence of 5% CO2. On the next day, the compound diluted in 3-fold common ratio was added to each well, followed by further culturing for 2 days. Then, in order to evaluate the cell viability, a CellTiter 96 AQueous One SolutionReagent was added to each well according to the Promega Corporation's protocol, followed by culturing for 1 hour. […] In a case where the absorbance is insufficient, the absorbance was measured after performing the culturing for another 1 to 2 hours.

[1] = tested on: FLT3 ITD.Y842H-expressing 32D cells; assay: Cell growth assay, FLT3 ITD.Y842H-expressing 32D cells; conditions: Mus musculus, read-out: GI50 value for growth of FLT3 protein-expressing 32D cells
From the text: (§3) The ITD.Y842C-mutant or ITD.Y842H-mutant FLT3-expressing vector was constructed by introducing Y842C and Y842H mutations into the C-terminal FLAG sequence-added ITD-mutant FLT3 gene inserted into a pGEM-T vector as a template, using the primers shown below and according to the protocol of a QuikChange Site-Directed Mutagenesis Kit (Stratagene Corporation), and then inserting the whole length of the ITD.Y842-mutant FLT3 gene into a pMXs-IP retroviral vector. Introduced mutations were confirmed by sequence analysis.
(§4) The mutant FLT3 pMXs-IP retroviral vectors prepared according to the above-mentioned procedure were introduced into PLAT-E cells by using FuGENE6, followed by culturing for 2 days, and the culture supernatant containing viruses was collected. […]
(§5) Individual cells were seeded onto a 96-well plate (Becton, Dickinson and Company) at a density of 1000 to 10000 cells/well, and the cell culture was started at 37° C. in the presence of 5% CO2. […] Thereafter, the absorbance (OD=492 nm) was measured using an MPR-A4i II microplate reader (Tosoh Corporation). In a case where the absorbance is insufficient, the absorbance was measured after performing the culturing for another 1 to 2 hours. […]

[2] = tested on: FLT3 ITD.D835Y-expressing 32D cells; assay: Cell growth assay, FLT3 ITD.D835Y-expressing 32D cells; conditions: Mus musculus, read-out: GI50 value for growth of FLT3 protein-expressing 32D cells
From the text: The ITD.D835Y-mutant FLT3-expressing vector was constructed by replacing a sequence containing aspartic acid 835 cleaved by Sphl, in the C-terminal FLAG sequence-added ITD-mutant FLT3 gene inserted into a pGEM-T vector, with the corresponding sequence of the C-terminal FLAG sequence-added D835Y-mutant FLT3 gene inserted into a pGEM-T vector, and then inserting the whole length of C-terminal FLAG sequence-added ITD.D835Y-mutant FLT3 sequence into a pMXs-IP retroviral vector.
as §4, with “collected. After the virus-containing culture supernatant was added to the mouse hematopoietic precursor cell line 32D cells in the presence of 10 μg/mL polybrene, and the cells were cultured in the presence of 0.5 ng/mL mouse IL-3.” for “collected.”
as §5

32D FLT3 Y842C cells = assay: Cell growth assay, 32D FLT3 Y842C; conditions: Mus musculus, 48 h, FLT3 Y842C, 2 days with compound, read-out: GI50 value for growth of FLT3 protein-expressing 32D cells
Protocol: as §1, §2

32D FLT3 D835N cells = assay: Cell growth assay, 32D FLT3 D835N; conditions: Mus musculus, 48 h, FLT3 D835N, 2 days with compound, read-out: GI50 value for growth of FLT3 protein-expressing 32D cells
Protocol: as §1, §2

[3] = tested on: FLT3 ITD.Y842C-expressing 32D cells; assay: Cell growth assay, FLT3 ITD.Y842C-expressing 32D cells; conditions: Mus musculus, read-out: GI50 value for growth of FLT3 protein-expressing 32D cells
From the text: as §3, §4, §5

32D FLT3 Y842H cells = assay: Cell growth assay, 32D FLT3 Y842H; conditions: Mus musculus, 48 h, FLT3 Y842H, 2 days with compound, read-out: GI50 value for growth of FLT3 protein-expressing 32D cells
Protocol: as §1, §2

32D FLT3/FL cells = assay: Cell growth assay, FLT3/FLT3 ligand-coexpressing 32D cell line; conditions: Mus musculus, 48 h, FLT3/FL, 2 days with compound, read-out: GI50 value for growth of FLT3 protein-expressing 32D cells
Protocol: RPMI1640 and DMEM were purchased from Life Technologies or SIGMA. The 32D cells were obtained from RIKEN Bioresource Center, and cultured in the presence of 5% CO2 at 37° C. using an RPMI1640 medium containing 1 ng/mL mouse IL-3, 10% fetal bovine serum (FBS), 100 U/mL penicillin and […] streptomycin. The PLAT-E cells were kindly provided by Dr. Kitamura Toshio of Tokyo University and cultured in a DMEM medium containing 1 μg/mL puromycin, 10 μg/mL blasticidin S, 10% FBS, 100 U/mL penicillin and […] streptomycin. […] A pGEM-T vector, FuGENE6 and CellTiter 96 AQueous One Solution Cell Proliferation Assay were purchased from Promega Corporation.
as §2

32D FLT3 D835H cells = assay: Cell growth assay, 32D FLT3 D835H; conditions: Mus musculus, 48 h, FLT3 D835H, 2 days with compound, read-out: GI50 value for growth of FLT3 protein-expressing 32D cells
Protocol: as §1, §2

32D FLT3 D835E cells = assay: Cell growth assay, 32D FLT3 D835E; conditions: Mus musculus, 48 h, FLT3 D835E, 2 days with compound, read-out: GI50 value for growth of FLT3 protein-expressing 32D cells
Protocol: as §1, §2

32D FLT3 D835V cells = assay: Cell growth assay, 32D FLT3 D835V; conditions: Mus musculus, 48 h, FLT3 D835V, 2 days with compound, read-out: GI50 value for growth of FLT3 protein-expressing 32D cells
Protocol: as §1, §2

[4] = tested on: FLT3 ITD-expressing 32D cells; assay: Cell growth assay, FLT3 ITD-expressing 32D cells; conditions: Mus musculus, read-out: GI50 value for growth of FLT3 protein-expressing 32D cells
From the text: The ITD-mutant FLT3-expressing vector was constructed by introducing an ITD-mutant FLT3 gene (clone Mt2) described in Kiyoi H, et al., Leukemia, Vol. 12, pp. 1333 to 1337, 1998 into a pMXs-IP retroviral vector as a sequence having a FLAG sequence added to the C-terminal thereof.
as §4, with “collected. After the virus-containing culture supernatant was added to the mouse hematopoietic precursor cell line 32D cells in the presence of 10 μg/mL polybrene, and the cells were cultured in the presence of 0.5 ng/mL mouse IL-3.” for “collected.”
as §5

32D FLT3 D835Y cells = assay: Cell growth assay, 32D FLT3 D835Y; conditions: Mus musculus, 48 h, FLT3 D835Y, 2 days with compound, read-out: GI50 value for growth of FLT3 protein-expressing 32D cells
Protocol: as §1, §2

Measured: GI50

CCCNc1nc(Nc2ccc(C#N)cc2)ncc1C#CCCCNC(=O)[C@H](C)N(C)C(=O)/C=C/CN(C)C [Compound 38]
< 1 nM: [1] | 32D FLT3 D835V cells | 32D FLT3 D835Y cells
1 to 10 nM: all other assays above
